Data: patent US11299478B2, “2-cyanopyrimidin-4-yl carbamate or urea derivative or salt thereof, and pharmaceutical composition including same” (HANLIM PHARMACEUTICAL CO., LTD., priority 2018, dated 2022)

Target: T1, cathepsin K (Homo sapiens, UniProt P43235)
T1 sequence (P43235 115-329): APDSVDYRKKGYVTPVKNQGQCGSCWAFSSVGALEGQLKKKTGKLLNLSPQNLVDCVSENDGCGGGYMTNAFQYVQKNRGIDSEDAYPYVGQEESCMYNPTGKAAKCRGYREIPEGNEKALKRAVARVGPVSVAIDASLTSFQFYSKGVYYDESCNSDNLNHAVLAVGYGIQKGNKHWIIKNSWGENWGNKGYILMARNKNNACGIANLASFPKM
Test: Inhibitory activity assay against cathepsin K (enzyme assay)
Format: biochemical
Conditions: Z-Phe-Arg-AMC 10 μM, enzyme 1 nM, pH 5.5, 30 minutes
Experimental: In order to measure the enzyme activity of cathepsin K, a buffer solution (pH 5.5) consisting of 50 mM 2-(N-morpholino)ethanesulfonic acid (MES), 2 mM dithiothreitol (DTT), 2.5 mM ethylenediaminetetraacetic acid (EDTA), 0.01% Triton X-100, and 10% dimethyl sulfoxide (DMSO) was prepared. The substrate, the test material, and the enzyme were mixed in the buffer solution in a predetermined concentration. The Z-Phe-Arg-AMC substrate was used in the final concentration of 10 μM. The test material was used in the final concentrations of 10.0 μM, 3.33 μM, 1.11 μM, 0.370 μM, 0.123 μM, 0.0412 μM, 0.0137 μM, 0.00457 μM, 0.00152 μM, and 0.000508 μM, respectively. The cathepsin K enzyme was used in the final concentration of 1 nM. The final volume of the enzyme reaction solution was 10 μL. After reacting the mixture of substrate, test material, and enzyme for 30 minutes, the enzyme activity was measured with the Synergy Neo (Biotek) microplate reader at an absorption wavelength of 355 nm and an emission wavelength of 460 nm. IC50 values were determined using 4-parameter logistic curve fit program of GraphPad Prism.

N#Cc1nccc(C2(NC(=O)OCc3ccccc3)CCCC2)n1 [Example 1, Benzyl (1-(2-cyanopyrimidin-4-yl)cyclopentyl)carbamate]
IC50: 23 nM

Cc1cccc(COC(=O)NC2(c3ccnc(C#N)n3)CCCC2)c1 [Example 5, 3-methylbenzyl (1-(2-cyanopyrimidin-4-yl)cyclopentyl)carbamate]
IC50: 161 nM

COc1cccc(COC(=O)NC2(c3ccnc(C#N)n3)CCCC2)c1 [Example 6, 3-methoxybenzyl (1-(2-cyanopyrimidin-4-yl)cyclopentyl)carbamate]
IC50: 179 nM

N#Cc1nccc(C2(NC(=O)OCc3cccc(Cl)c3)CCCC2)n1 [Example 8, 3-chlorobenzyl (1-(2-cyanopyrimidin-4-yl)cyclopentyl)carbamate]
IC50: 285 nM

N#Cc1cccc(COC(=O)NC2(c3ccnc(C#N)n3)CCCC2)c1 [Example 9, 3-cyanobenzyl (1-(2-cyanopyrimidin-4-yl)cyclopentyl)carbamate]
IC50: 490 nM

N#Cc1nccc(C2(NC(=O)OCc3cccc(-c4ccc(N5CCOCC5)cc4)c3)CCCC2)n1 [Example 32, (4′-morpholino-[1,1′-biphenyl]-3-yl)methyl (1-(2-cyanopyrimidin-4-yl)cyclopentyl)carbamate]
IC50: ≥ 10000 nM

Cn1ncc2ccc(-c3ccc(COC(=O)NC4(c5ccnc(C#N)n5)CCCC4)cc3)cc21 [Example 34, 4-(1-methyl-1H-indazol-6-yl)benzyl (1-(2-cyanopyrimidin-4-yl)cyclopentyl)carbamate]
IC50: 2040 nM

Cc1ccccc1NC(=O)NC1(c2ccnc(C#N)n2)CCCC1 [Example 37, 1-(1-(2-cyanopyrimidin-4-yl)cyclopentyl)-3-(ortho-tolyl)urea]
IC50: 113 nM

Cc1ccc(NC(=O)NC2(c3ccnc(C#N)n3)CCCC2)cc1 [Example 39, 1-(1-(2-cyanopyrimidin-4-yl)cyclopentyl)-3-(para-tolyl)urea]
IC50: 108 nM

N#Cc1nccc(C2(NC(=O)NCCc3ccc(S(N)(=O)=O)cc3)CCCC2)n1 [Example 45, 4-(2-(3-(1-(2-cyanopyrimidin-4-yl)cyclopentyl)ureido)ethyl)benzenesulfonamide]
IC50: 3430 nM

Cc1cccc(CNC(=O)NC2(c3ccnc(C#N)n3)CCCC2)c1 [Example 47, 1-(1-(2-cyanopyrimidin-4-yl)cyclopentyl)-3-(3-methylbenzyl)urea]
IC50: 105 nM

COc1ccc(CNC(=O)NC2(c3ccnc(C#N)n3)CCCC2)cc1OC [Example 49, 1-(1-(2-cyanopyrimidin-4-yl)cyclopentyl)-3-(3,4-dimethoxybenzyl)urea]
IC50: 590 nM

N#Cc1nccc(C2(NC(=O)Nc3ccc(N4CCNCC4)cc3)CCCC2)n1 [Example 52, 1-(1-(2-cyanopyrimidin-4-yl)cyclopentyl)-3-(4-(piperazin-1-yl)phenyl)urea]
IC50: 608 nM

N#Cc1nccc(C2(NC(=O)NCc3ccoc3)CCCC2)n1 [Example 53, 1-(1-(2-cyanopyrimidin-4-yl)cyclopentyl)-3-(furan-3-ylmethyl)urea]
IC50: 320 nM

N#Cc1nccc(C2(NC(=O)NCc3cccc(C(F)(F)F)c3)CCCC2)n1 [Example 57, 1-(1-(2-cyanopyrimidin-4-yl)cyclopentyl)-3-(3-(trifluoromethyl)benzyl)urea]
IC50: 517 nM

N#Cc1nccc(C2(NC(=O)NCc3ccc(C(F)(F)F)cc3)CCCC2)n1 [Example 58, 1-(1-(2-cyanopyrimidin-4-yl)cyclopentyl)-3-(4-(trifluoromethyl)benzyl)urea]
IC50: 116 nM

N#Cc1nccc(C2(NC(=O)Nc3ccccc3C(F)(F)F)CCCC2)n1 [Example 59, 1-(1-(2-cyanopyrimidin-4-yl)cyclopentyl)-3-(2-(trifluoromethyl)phenyl)urea]
IC50: 174 nM

N#Cc1nccc(C2(NC(=O)Nc3ccc(C(F)(F)F)cc3)CCCC2)n1 [Example 61, 1-(1-(2-cyanopyrimidin-4-yl)cyclopentyl)-3-(4-(trifluoromethyl)phenyl)urea]
IC50: 292 nM

COc1ccccc1CNC(=O)NC1(c2ccnc(C#N)n2)CCCC1 [Example 68, 1-(1-(2-cyanopyrimidin-4-yl)cyclopentyl)-3-(2-methoxybenzyl)urea]
IC50: 219 nM

COc1cccc(CNC(=O)NC2(c3ccnc(C#N)n3)CCCC2)c1 [Example 69, 1-(1-(2-cyanopyrimidin-4-yl)cyclopentyl)-3-(3-methoxybenzyl)urea]
IC50: 552 nM

COc1ccc(CNC(=O)NC2(c3ccnc(C#N)n3)CCCC2)cc1 [Example 70, 1-(1-(2-cyanopyrimidin-4-yl)cyclopentyl)-3-(4-methoxybenzyl)urea]
IC50: 270 nM

N#Cc1nccc(C2(NC(=O)Nc3cccc(O)c3)CCCC2)n1 [Example 71, 1-(1-(2-cyanopyrimidin-4-yl)cyclopentyl)-3-(3-hydroxyphenyl)urea]
IC50: 547 nM

N#Cc1nccc(C2(NC(=O)Nc3ccc(S(N)(=O)=O)cc3)CCCC2)n1 [Example 72, 4-(3-(1-(2-cyanopyrimidin-4-yl)cyclopentyl)ureido)benzenesulfonamide]
IC50: 331 nM

N#Cc1nccc(C2(NC(=O)Nc3ccccc3O)CCCC2)n1 [Example 73, 1-(1-(2-cyanopyrimidin-4-yl)cyclopentyl)-3-(2-hydroxyphenyl)urea]
IC50: 315 nM

Cn1ncc2cc(NC(=O)NC3(c4ccnc(C#N)n4)CCCC3)ccc21 [Example 76, 1-(1-(2-cyanopyrimidin-4-yl)cyclopentyl)-3-(1-methyl-1H-indazol-5-yl)urea]
IC50: 573 nM

COc1ccccc1NC(=O)NC1(c2ccnc(C#N)n2)CCCC1 [Example 79, 1-(1-(2-cyanopyrimidin-4-yl)cyclopentyl)-3-(2-methoxyphenyl)urea]
IC50: 3080 nM

COc1cccc(NC(=O)NC2(c3ccnc(C#N)n3)CCCC2)c1 [Example 80, 1-(1-(2-cyanopyrimidin-4-yl)cyclopentyl)-3-(3-methoxyphenyl)urea]
IC50: 157 nM

COc1ccc(NC(=O)NC2(c3ccnc(C#N)n3)CCCC2)cc1 [Example 81, 1-(1-(2-cyanopyrimidin-4-yl)cyclopentyl)-3-(4-methoxyphenyl)urea]
IC50: 162 nM

N#Cc1nccc(C2(NC(=O)Nc3cccc(-c4ccc(C(F)(F)F)cc4)c3)CCCCC2)n1 [Example 112, 1-(1-(2-cyanopyrimidin-4-yl)cyclohexyl)-3-(4′-(trifluoromethyl)-[1,1′-biphenyl]-3-yl)urea]
IC50: 147 nM

N#Cc1nccc(C2(NC(=O)Nc3ccc(C(=O)O)cc3)CCCCC2)n1 [Example 135, 4-(3-(1-(2-cyanopyrimidin-4-yl)cyclohexyl)ureido)benzoic acid]
IC50: 111 nM

CC(C)C1CCN(c2ccc(NC(=O)NC3(c4ccnc(C#N)n4)CCCCC3)cc2)CC1 [Example 145, 1-(1-(2-cyanopyrimidin-4-yl)cyclohexyl)-3-(4-(4-isopropylpiperidin-1-yl)phenyl)urea]
IC50: 76 nM

COCCc1ccc(OCc2ccc(-c3ccc(NC(=O)NC4(c5ccnc(C#N)n5)CCCCC4)cc3)cc2)cc1 [Example 152, 1-(1-(2-cyanopyrimidin-4-yl)cyclohexyl)-3-(4′-((4-(2-methoxyethyl)phenoxy)methyl)-[1,1′-biphenyl]-4-yl)urea]
IC50: 2400 nM

COC(=O)CCC#Cc1ccc(-c2ccc(NC(=O)NC3(c4ccnc(C#N)n4)CCCCC3)cc2)cc1 [Example 175, methyl 5-(4′-(3-(1-(2-cyanopyrimidin-4-yl)cyclohexyl)ureido)-[1,1′-biphenyl]-4-yl)pent-4-ynoate]
IC50: 136 nM
